Assay results taken from ChEMBL document CHEMBL3272271, “Folate antagonists. 13. 2,4-Diamino-6-](alpha,alpha,alpha-trifluoro-m-tolyl)thio]quinazoline and related 2,4-diamino-6-[(phenyl- and naphthyl)thio]quinazolines, a unique class of antimetabolites with extraordinary antimalarial and antibacterial effects” (J Med Chem, 1978).
Values after ≈ are worked out from the molar mass of the structure shown. Active and inactive are the calls of the source. The rule behind the calls is not given here.

How the values were obtained:
[1] = tested on: Plasmodium gallinaceum; assay: Antimalarial activity against sporozoite-induced Plasmodium gallinaceum infected in white leghorn chicken assessed as increase in mean survival days of host at 15 mg/kg, sc administered 72 hrs after infection relative to control; format: functional; conditions: route subcutaneous
[2] = tested on: Plasmodium gallinaceum; assay: Antimalarial activity against sporozoite-induced Plasmodium gallinaceum infected in white leghorn chicken assessed as disease cure from parasite infection at 80 mg/kg, sc administered 72 hrs after infection; format: functional, organism-based; parameters: dose 80 mg/kg
[3] = tested on: Gallus gallus; assay: Toxicity in sporozoite-induced Plasmodium gallinaceum infected white leghorn chicken assessed as mortality at 480 mg/kg, sc administered 72 hrs after infection measured up to 6 days; format: organism-based; parameters: dose 480 mg/kg, route subcutaneous; conditions: in vivo
[4] = tested on: Plasmodium gallinaceum; assay: Antimalarial activity against sporozoite-induced Plasmodium gallinaceum infected in white leghorn chicken assessed as disease cure from parasite infection at 480 mg/kg, sc administered 72 hrs after infection; format: functional, organism-based; parameters: dose 480 mg/kg
[5] = tested on: Plasmodium berghei; assay: Ratio of quinine hydrochloride SD90 to compound SD90 for trophozoite-induced Plasmodium berghei infected in mouse assessed as daily dose required to suppression of 90% parasite infection administered with diet for 6 days; format: functional
[6] = tested on: Plasmodium gallinaceum; assay: Antimalarial activity against sporozoite-induced Plasmodium gallinaceum infected in white leghorn chicken assessed as disease cure from parasite infection at 120 mg/kg, sc administered 72 hrs after infection; format: functional, organism-based; parameters: dose 120 mg/kg
[7] = tested on: Plasmodium gallinaceum; assay: Antimalarial activity against sporozoite-induced Plasmodium gallinaceum infected in white leghorn chicken assessed as disease cure from parasite infection at 240 mg/kg, sc administered 72 hrs after infection; format: functional, organism-based; parameters: dose 240 mg/kg
[8] = tested on: Plasmodium berghei; assay: Antimalarial activity against trophozoite-induced Plasmodium berghei infected in mouse assessed as daily dose required to suppression of 90% parasite infection administered with diet for 6 days; format: functional
[9] = tested on: Plasmodium gallinaceum; assay: Antimalarial activity against sporozoite-induced Plasmodium gallinaceum infected in white leghorn chicken assessed as disease cure from parasite infection at 15 mg/kg, sc administered 72 hrs after infection; format: functional, organism-based; parameters: dose 15 mg/kg
[10] = tested on: Plasmodium gallinaceum; assay: Antimalarial activity against sporozoite-induced Plasmodium gallinaceum infected in white leghorn chicken assessed as disease cure from parasite infection at 160 mg/kg, sc administered 72 hrs after infection; format: functional, organism-based; parameters: dose 160 mg/kg
[11] = tested on: Plasmodium berghei; assay: Antimalarial activity against Plasmodium berghei infected in mouse assessed as disease cure from parasite infection at 320 mg/kg, sc administered 72 hrs after infection; format: functional, organism-based; parameters: dose 320 mg/kg
[12] = tested on: Plasmodium gallinaceum; assay: Antimalarial activity against trophozoite-induced Plasmodium gallinaceum infected in white leghorn chicken assessed as increase in mean survival days of host at 320 mg/kg, sc administered 72 hrs after infection relative to control; format: functional; conditions: route subcutaneous
[13] = tested on: Plasmodium berghei; assay: Antimalarial activity against Plasmodium berghei infected in mouse assessed as disease cure from parasite infection at 20 mg/kg, sc administered 72 hrs after infection; format: functional, organism-based; parameters: dose 20 mg/kg
[14] = tested on: Plasmodium berghei; assay: Antimalarial activity against Plasmodium berghei infected in mouse assessed as disease cure from parasite infection at 80 mg/kg, sc administered 72 hrs after infection; format: functional, organism-based; parameters: dose 80 mg/kg
[15] = tested on: Plasmodium gallinaceum; assay: Antimalarial activity against trophozoite-induced Plasmodium gallinaceum infected in white leghorn chicken assessed as disease cure from parasite infection at 320 mg/kg, sc administered 72 hrs after infection; format: functional, organism-based; parameters: dose 320 mg/kg
[16] = tested on: Plasmodium gallinaceum; assay: Antimalarial activity against trophozoite-induced Plasmodium gallinaceum infected in white leghorn chicken assessed as disease cure from parasite infection at 160 mg/kg, sc administered 72 hrs after infection; format: functional, organism-based; parameters: dose 160 mg/kg
[17] = tested on: Plasmodium berghei; assay: Antimalarial activity against Plasmodium berghei infected in mouse assessed as increase in mean survival days of host at 20 mg/kg, sc administered 72 hrs after infection relative to control; format: functional; conditions: route subcutaneous
[18] = tested on: Plasmodium gallinaceum; assay: Antimalarial activity against sporozoite-induced Plasmodium gallinaceum infected in white leghorn chicken assessed as disease cure from parasite infection at 60 mg/kg, sc administered 72 hrs after infection; format: functional, organism-based; parameters: dose 60 mg/kg
[19] = tested on: Plasmodium gallinaceum; assay: Antimalarial activity against sporozoite-induced Plasmodium gallinaceum infected in white leghorn chicken assessed as disease cure from parasite infection at 30 mg/kg, sc administered 72 hrs after infection; format: functional, organism-based; parameters: dose 30 mg/kg
[20] = tested on: Plasmodium gallinaceum; assay: Antimalarial activity against trophozoite-induced Plasmodium gallinaceum infected in white leghorn chicken assessed as increase in mean survival days of host at 120 mg/kg, sc administered 72 hrs after infection relative to control; format: functional; conditions: route subcutaneous
[21] = tested on: Plasmodium gallinaceum; assay: Antimalarial activity against trophozoite-induced Plasmodium gallinaceum infected in white leghorn chicken assessed as increase in mean survival days of host at 80 mg/kg, sc administered 72 hrs after infection relative to control; format: functional; conditions: route subcutaneous
[22] = tested on: Plasmodium gallinaceum; assay: Antimalarial activity against sporozoite-induced Plasmodium gallinaceum infected in white leghorn chicken assessed as disease cure from parasite infection at 320 mg/kg, sc administered 72 hrs after infection; format: functional, organism-based; parameters: dose 320 mg/kg
[23] = tested on: Plasmodium berghei; assay: Antimalarial activity against Plasmodium berghei infected in mouse assessed as disease cure from parasite infection at 160 mg/kg, sc administered 72 hrs after infection; format: functional, organism-based; parameters: dose 160 mg/kg
[24] = tested on: Plasmodium gallinaceum; assay: Antimalarial activity against trophozoite-induced Plasmodium gallinaceum infected in white leghorn chicken assessed as disease cure from parasite infection at 80 mg/kg, sc administered 72 hrs after infection; format: functional, organism-based; parameters: dose 80 mg/kg
[25] = tested on: Plasmodium gallinaceum; assay: Antimalarial activity against sporozoite-induced Plasmodium gallinaceum infected in white leghorn chicken assessed as increase in mean survival days of host at 30 mg/kg, sc administered 72 hrs after infection relative to control; format: functional; conditions: route subcutaneous
[26] = tested on: Escherichia coli; assay: Antibacterial activity against Escherichia coli Vogel by gradient plate test; format: functional
[27] = tested on: Plasmodium berghei; assay: Antimalarial activity against cycloguanil-resistant Plasmodium berghei assessed as drug resistance; format: functional, organism-based
[28] = tested on: Staphylococcus aureus; assay: Antibacterial activity against drug-resistant Staphylococcus aureus S18713 by gradient plate test; format: functional
[29] = tested on: Plasmodium gallinaceum; assay: Antimalarial activity against trophozoite-induced Plasmodium gallinaceum infected in white leghorn chicken assessed as increase in mean survival days of host at 1.25 mg/kg, sc administered 72 hrs after infection relative to control; format: functional; conditions: route subcutaneous
[30] = tested on: Plasmodium gallinaceum; assay: Antimalarial activity against trophozoite-induced Plasmodium gallinaceum infected in white leghorn chicken assessed as disease cure from parasite infection at 10 mg/kg, sc administered 72 hrs after infection; format: functional, organism-based; parameters: dose 10 mg/kg
[31] = tested on: Staphylococcus aureus; assay: Antibacterial activity against Staphylococcus aureus UC-96 by gradient plate test; format: functional
[32] = tested on: Plasmodium falciparum; assay: Antimalarial activity against pyrimethamine-sensitive Plasmodium falciparum Vietnam Oak Knoll infected in Aotus trivirgatus owl monkey model assessed as cure from parasite infection at 0.6 mg/kg, po qd for 7 days relative to control; format: functional
[33] = tested on: Plasmodium berghei; assay: Antimalarial activity against Plasmodium berghei infected in mouse assessed as increase in mean survival days of host at 10 mg/kg, sc administered 72 hrs after infection relative to control; format: functional; conditions: route subcutaneous
[34] = tested on: Plasmodium gallinaceum; assay: Antimalarial activity against trophozoite-induced Plasmodium gallinaceum infected in white leghorn chicken assessed as disease cure from parasite infection at 20 mg/kg, sc administered 72 hrs after infection; format: functional, organism-based; parameters: dose 20 mg/kg
[35] = tested on: Plasmodium gallinaceum; assay: Antimalarial activity against trophozoite-induced Plasmodium gallinaceum infected in white leghorn chicken assessed as increase in mean survival days of host at 0.63 mg/kg, sc administered 72 hrs after infection relative to control; format: functional; conditions: route subcutaneous
[36] = tested on: Plasmodium falciparum; assay: Antimalarial activity against chloroquine-susceptible, pyrimethamine-resistant Plasmodium falciparum Malayan Camp infected in Aotus trivirgatus owl monkey model assessed as cure from parasite infection at >2.5 mg/kg, po qd for 7 days relative to control; format: functional
[37] = tested on: Plasmodium gallinaceum; assay: Antimalarial activity against trophozoite-induced Plasmodium gallinaceum infected in white leghorn chicken assessed as increase in mean survival days of host at 2.5 mg/kg, sc administered 72 hrs after infection relative to control; format: functional; conditions: route subcutaneous
[38] = tested on: Plasmodium falciparum; assay: Antimalarial activity against chloroquine-susceptible, pyrimethamine-resistant Plasmodium falciparum Malayan Camp infected in Aotus trivirgatus owl monkey model assessed as cure from parasite infection at 0.39 to 5 mg/kg, po qd for 7 days relative to control; format: functional; conditions: dose mg/kg 0.39-5
[39] = tested on: Plasmodium berghei; assay: Antimalarial activity against Plasmodium berghei infected in mouse assessed as disease cure from parasite infection at 40 mg/kg, sc administered 72 hrs after infection; format: functional, organism-based; parameters: dose 40 mg/kg
[40] = tested on: Plasmodium berghei; assay: Antimalarial activity against Plasmodium berghei infected in mouse assessed as increase in mean survival days of host at 2.5 mg/kg, sc administered 72 hrs after infection relative to control; format: functional; conditions: route subcutaneous
[41] = tested on: Plasmodium berghei; assay: Antimalarial activity against Plasmodium berghei infected in mouse assessed as increase in mean survival days of host at 5 mg/kg, sc administered 72 hrs after infection relative to control; format: functional; conditions: route subcutaneous
[42] = tested on: Plasmodium berghei; assay: Antimalarial activity against Plasmodium berghei infected in mouse assessed as increase in mean survival days of host at 1.25 mg/kg, sc administered 72 hrs after infection relative to control; format: functional; conditions: route subcutaneous
[43] = tested on: Pseudomonas aeruginosa; assay: Antibacterial activity against Pseudomonas aeruginosa 28 by gradient plate test; format: functional
[44] = tested on: Plasmodium berghei; assay: Antimalarial activity against chloroquine-resistant Plasmodium berghei assessed as drug resistance; format: functional, organism-based
[45] = tested on: Plasmodium berghei; assay: Antimalarial activity against Plasmodium berghei infected in mouse assessed as disease cure from parasite infection at 640 mg/kg, sc administered 72 hrs after infection; format: functional, organism-based; parameters: dose 640 mg/kg
[46] = tested on: Plasmodium falciparum; assay: Antimalarial activity against pyrimethamine-sensitive Plasmodium falciparum Vietnam Oak Knoll infected in Aotus trivirgatus owl monkey model assessed as cure from parasite infection at 0.098 to 1.56 mg/kg, po qd for 7 days relative to control; format: functional; conditions: dose mg/kg 0.098-1.56
[47] = tested on: Enterococcus faecalis; assay: Antibacterial activity against Streptococcus faecalis MGH-2 by gradient plate test; format: functional
[48] = tested on: Plasmodium gallinaceum; assay: Antimalarial activity against trophozoite-induced Plasmodium gallinaceum infected in white leghorn chicken assessed as increase in mean survival days of host at 5 mg/kg, sc administered 72 hrs after infection relative to control; format: functional; conditions: route subcutaneous
[49] = tested on: Shigella sonnei; assay: Antibacterial activity against Shigella sonnei C-10 by gradient plate test; format: functional

In the case of CC(=O)O.Nc1nc(N)c2cc(N(Cc3ccc(Cl)c(Cl)c3)N=O)ccc2n1, the MST [1] is reported as 0 days, the Activity [2] is reported as “Active” and the Activity [3] is reported as “Toxic”. The Activity [4] was “Active”, the Ratio [5] was 270 and the Activity [6] was “Active”. The Activity [7] was “Active”, the SD90 [8] was 0.27 mg/kg/day and the Activity [9] was “Active”. For the same molecule, the Activity [10] was “Active”, the Activity [11] was “Active” and the MST [12] was 16.9 days. For the same molecule, the Activity [13] was “Active”, the Activity [14] was “Active” and the Activity [15] was “Active”. For the same molecule, the Activity [16] was “Active”, the MST [17] was 22.4 days and the Activity [18] was “Active”. The Activity [19] was “Active”, the MST [20] was 16.9 days and the MST [21] was 16.9 days. For the same molecule, the Activity [22] was “Active”, the Activity [23] was “Active” and the Activity [24] was “Active”. For the same molecule, the MST [25] was 0 days.
CN(C)c1ccc(Sc2ccc3nc(N)nc(N)c3c2)cc1 was tested, and the MIC [26] was 1.5 µg/mL (≈ 4.82 µM), the Activity [27] was “Active” and the MIC [28] was < 0.25 µg/mL. For the same molecule, the MST [29] was 10.4 days, the Activity [30] was “Active” and the MIC [31] was < 0.25 µg/mL. For the same molecule, the Activity [32] was >50%, the MST [33] was 10.3 days and the Activity [4] was “Active”. The Activity [6] was “Active”, the Activity [34] was “Active” and the MST [35] was 6.6 days. The Activity [7] was “Active”, the Activity [36] was >50% and the MST [37] was 12.6 days. The Activity [38] was >50%, the Activity [9] was “Active” and the Activity [11] was “Active”. The Activity [13] was “Active”, the Activity [14] was “Active” and the Activity [39] was “Active”. For the same molecule, the MST [40] was 5.5 days, the MST [41] was 9.7 days and the Activity [18] was “Active”. The Activity [19] was “Active”, the MST [42] was 2.5 days and the MIC [43] was > 25 µg/mL. The Activity [44] was “inactive”, the Activity [45] was “Active” and the Activity [46] was >50%. For the same molecule, the MIC [47] was < 0.25 µg/mL, the Activity [23] was “Active” and the MST [48] was 19.8 days. The MIC [49] was 10 µg/mL (≈ 32.1 µM).
